Experimental data taken from patent publication US20170334899A1, “AMINO-SUBSTITUTED ISOTHIAZOLES” (Bayer Pharma Aktiengesellschaft, priority 2014, published 2017).
“And” between values parts separate entries of the source, which are not always exact repeats. Identical values can stand only once.

Legend:
[1] = biological target: T1, catalytic domain of human Bub1 (amino acids 704-1085) (Homo sapiens, UniProt O43683); test: Bub1 kinase assay (TR-FRET); type: biochemical; settings: 10 μM ATP, avg, read-out: Bub1 avg (IC50 [mol/l])
T1 construct: catalytic domain of human Bub1 (amino acids 704-1085); His6 (N); made in house; host or cells: insect cells (Hi5)
T1 sequence (O43683 704-1085): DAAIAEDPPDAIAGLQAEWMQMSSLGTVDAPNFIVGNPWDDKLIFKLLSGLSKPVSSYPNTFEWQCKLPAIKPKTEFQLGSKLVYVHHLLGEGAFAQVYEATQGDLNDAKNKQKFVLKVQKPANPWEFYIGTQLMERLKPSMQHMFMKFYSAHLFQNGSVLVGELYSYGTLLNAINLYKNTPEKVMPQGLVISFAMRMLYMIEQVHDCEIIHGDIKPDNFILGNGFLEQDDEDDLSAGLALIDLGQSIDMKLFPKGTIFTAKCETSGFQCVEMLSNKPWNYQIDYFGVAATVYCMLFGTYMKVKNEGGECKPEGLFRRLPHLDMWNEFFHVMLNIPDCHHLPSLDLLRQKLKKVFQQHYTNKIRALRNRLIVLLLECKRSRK
Outline: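 Readout is the 665/620 nm TR-FRET ratio from anti-phosphoserine antibody, Eu-labelled anti-mouse IgG and streptavidin-XL665, scaled between no-enzyme and uninhibited controls. Reaction: 1 μM biotinylated peptide, 10 μM ATP, 60 min, 22 °C, after 15 min compound preincubation with His6-Bub1 (704-1085, insect-expressed, ~200 ng/ml).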

[2] = biological target: T2, CDK2/CycE (Homo sapiens, UniProt P24941); test: CDK2/CycE kinase assay (TR-FRET); type: biochemical; settings: avg, read-out: CDK2 avg (IC50 [mol/l])
T2 construct: GST; purchased ProQinase GmbH (Freiburg, Germany); host or cells: insect cells (Sf9)
Outline: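 Read-out is a TR-FRET 665/620 nm emission ratio from EDTA-stopped reactions detected with anti-pRB(pSer807/pSer811), Eu-labelled anti-mouse IgG and streptavidin-XL665, scaled between no-enzyme and uninhibited wells. Reaction: Sf9-expressed GST-CDK2/GST-CycE, 15 min compound preincubation, 10 μM ATP, 0.75 μM biotin-peptide, 25 min, 22° C., pH 8.0 Tris buffer.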

Structure (SMILES) | IC50 [1] | IC50 [2]
Cc1nsc(Nc2cncc(C(F)(F)F)n2)c1C(=O)Nc1ccc(OCCCNC(=O)OC(C)(C)C)nc1 [Example 190, tert-butyl {3-[(5-{[(3-methyl-5-{[6-(trifluoromethyl)pyrazin-2-yl]amino}-1,2-thiazoL-4-yl)carbonyl]amino}pyridin-2-yl)oxy]propyl}carbamate] | > 20 µM | > 20 µM
Cc1nsc(Nc2cnc3ccccc3n2)c1C(=O)Nc1ccc(NC2CCCN(C(=O)OC(C)(C)C)C2)nc1 (centres unmarked) [Example 241, tert-butyl 3-{[5-({[3-methyl-5-(quinoxalin-2-ylamino)-1,2-thiazol-4-yl]carbonyl}amino)pyridin-2-yl]amino}piperidine-1-carboxylate] | > 20 µM | > 20 µM
Cc1nsc(Nc2cnccn2)c1C(=O)Nc1ccc(C(=O)OC(C)(C)C)cc1 [Example 184, tert-butyl 4-({[3-methyl-5-(pyrazin-2-ylamino)-1,2-thiazol-4-yl]carbonyl}amino)benzoate] | > 20 µM | > 20 µM
Cc1nsc(Nc2cnc3ccccc3n2)c1C(=O)Nc1ccc(Oc2ccc(SC(F)(F)F)cc2)nc1 [Example 233, 3-methyl-5-(quinoxalin-2-ylamino)-N-(6-{4-[(trifluoromethyl)sulfanyl]phenoxy}pyridin-3-yl)-1,2-thiazole-4-carboxamide] | > 20 µM | > 20 µM
Cc1nsc(Nc2ccc(C#N)cn2)c1C(=O)Nc1cccc(NC(=O)OC(C)(C)C)c1 [Example 179, tert-butyl {3-[({5-[(5-cyanopyridin-2-yl)amino]-3-methyl-1,2-thiazol-4-yl}carbonyl)amino]phenyl}carbamate] | > 20 µM | > 20 µM
Cc1nsc(Nc2cncc(C(F)(F)F)n2)c1C(=O)Nc1ccc(OCCN)nc1 [Example 196, N-[6-(2-aminoethoxy)pyridin-3-yl]-3-methyl-5-{[6-(trifluoromethyl)pyrazin-2-yl]amino}-1,2-thiazole-4-carboxamide] | > 20 µM | > 20 µM
Cc1nsc(Nc2cnc(C(F)(F)F)cn2)c1C(=O)Nc1ccc(C(=O)NCCN2CCCC(F)C2)cc1 (centres unmarked) [Example 213, N-(4-{[2-(3-fluoropiperidin-1-yl)ethyl]carbamoyl}phenyl)-3-methyl-5-{[5-(trifluoromethyl)pyrazin-2-yl]amino}-1,2-thiazole-4-carboxamide] | 17 µM | > 20 µM
Cc1nsc(Nc2cncc(C(F)(F)F)n2)c1C(=O)Nc1ccc(F)c(C(N)=O)c1 [Example 204, N-(3-carbamoyl-4-fluorophenyl)-3-methyl-5-{[6-(trifluoromethyl)pyrazin-2-yl]amino}-1,2-thiazole-4-carboxamide] | > 20 µM and 16 µM | > 20 µM
Cc1nsc(Nc2cnc3ccccc3n2)c1C(=O)Nc1ccc(C(=O)OC(C)(C)C)cc1 [Example 181, tert-butyl 4-({[3-methyl-5-(quinoxalin-2-ylamino)-1,2-thiazol-4-yl]carbonyl}amino)benzoate] | > 20 µM | > 20 µM
Cc1nsc(Nc2cnc(C(F)(F)F)cn2)c1C(=O)Nc1ccc(OCCNC(=O)OC(C)(C)C)c(F)c1 [Example 215, tert-butyl [2-(2-fluoro-4-{[(3-methyl-5-{[5-(trifluoromethyl)pyrazin-2-yl]amino}-1,2-thiazol-4-yl)carbonyl]amino}phenoxy)ethyl]carbamate] | > 20 µM | > 20 µM
Cc1nsc(Nc2cc(C#N)ccn2)c1C(=O)Nc1ccc(Oc2cccc(C(F)(F)F)c2)nc1 [Example 230, 5-[(4-cyanopyridin-2-yl)amino]-3-methyl-N-{6-[3-(trifluoromethyl)phenoxy]pyridin-3-yl}-1,2-thiazole-4-carboxamide] | > 20 µM | > 20 µM
Cc1nsc(Nc2cncc(C(F)(F)F)n2)c1C(=O)Nc1ccc(OC2CCNCC2)nc1 [Example 13, 3-Methyl-N-[6-(piperidin-4-yloxy)pyridin-3-yl]-5-{[6-(trifluoromethyl)pyrazin-2-yl]-amino}-1,2-thiazole-4-carboxamide] | ≥ 20 µM | ≥ 20 µM
Cc1nsc(Nc2cncc(C(F)(F)F)n2)c1C(=O)Nc1ccc(OC2CCN(CC(F)F)CC2)c(F)c1 [Example 224, N-(4-{[1-(2,2-difluoroethyl)piperidin-4-yl]oxy}-3-fluorophenyl)-3-methyl-5-{[6-(trifluoromethyl)pyrazin-2-yl]amino}-1,2-thiazole-4-carboxamide] | > 20 µM | > 20 µM
CC(=O)N1CCC(Oc2ccc(NC(=O)c3c(C)nsc3Nc3cncc(C(F)(F)F)n3)cn2)CC1 [Example 17, N-{6-[(1-Acetylpiperidin-4-yl)oxy]pyridin-3-yl}-3-methyl-5-{[6-(trifluoromethyl)-pyrazin-2-yl]amino}-1,2-thiazole-4-carboxamide] | ≥ 20 µM | ≥ 20 µM
CC(=O)Nc1cc(NC(=O)c2c(C)nsc2Nc2cnc(C(F)(F)F)cn2)ccc1F [Example 206, N-(3-acetamido-4-fluorophenyl)-3-methyl-5-{[5-(trifluoromethyl)pyrazin-2-yl]amino}-1,2-thiazole-4-carboxamide] | 13 µM | > 20 µM

Continued, values first:

IC50 [1] | IC50 [2] | Structure (SMILES)
> 20 µM | > 20 µM | Cc1nsc(Nc2cnc(C(F)(F)F)cn2)c1C(=O)Nc1ccc(OC2CCN(C)CC2)nc1 [Example 220, 3-methyl-N-{6-[(1-methylpiperidin-4-yl)oxy]pyridin-3-yl}-5-{[5-(trifluoromethyl)pyrazin-2-yl]amino}-1,2-thiazole-4-carboxamide]
> 20 µM | > 20 µM | Cc1nsc(Nc2cncc(C(F)(F)F)n2)c1C(=O)Nc1ccc(OC2CCCN(C(=O)OC(C)(C)C)C2)nc1 (centres unmarked) [Example 189, tert-butyl 3-[(5-{[(3-methyl-5-{[6-(trifluoromethyl)pyrazin-2-yl]amino}-1,2-thiazol-4-yl)carbonyl]amino}pyridin-2-yl)oxy]piperidine-1-carboxylate]
> 20 µM | > 20 µM | Cc1nsc(Nc2cnc3ccccc3n2)c1C(=O)Nc1ccc(NCCNC(=O)OC(C)(C)C)nc1 [Example 244, tert-butyl (2-{[5-({[3-methyl-5-(quinoxalin-2-ylamino)-1,2-thiazol-4-yl]carbonyl}amino)pyridin-2-yl]amino}ethyl)carbamate]
> 20 µM | > 20 µM | Cc1nsc(Nc2cnc3ccccc3n2)c1C(=O)Nc1cccc(NC(=O)OC(C)(C)C)c1 [Example 178, tert-butyl [3-({[3-methyl-5-(quinoxalin-2-ylamino)-1,2-thiazol-4-yl]carbonyl}amino)-phenyl]carbamate]
3.8 µM | > 20 µM | Cc1nsc(Nc2cnc3ccccc3n2)c1C(=O)Nc1ccc(C(=O)O)cc1 [Example 187, 4-({[3-methyl-5-(quinoxalin-2-ylamino)-1,2-thiazol-4-yl]carbonyl}amino)benzoic acid]
> 20 µM | > 20 µM | Cc1nsc(Nc2cnc3ccccc3n2)c1C(=O)Nc1ccc(Oc2cccnc2)nc1 [Example 231, 3-methyl-N-[6-(pyridin-3-yloxy)pyridin-3-yl]-5-(quinoxalin-2-ylamino)-1,2-thiazole-4-carboxamide]
> 20 µM | > 20 µM | Cc1nsc(Nc2cc(C#N)ccn2)c1C(=O)Nc1ccc(NC2CCCNC2)nc1 (centres unmarked) [Example 242, 5-[(4-cyanopyridin-2-yl)amino]-3-methyl-N-[6-(piperidin-3-ylamino)pyridin-3-yl]-1,2-thiazole-4-carboxamide]
≥ 20 µM | ≥ 20 µM | Cc1nsc(Nc2cncc(C(F)(F)F)n2)c1C(=O)Nc1ccc(OC2CCN(CC(F)(F)F)CC2)nc1 [Example 16, 3-Methyl-N-(6-{[1-(2,2,2-trifluoroethyl)piperidin-4-yl]oxy}pyridin-3-yl)-5-{[6-(trifluoromethyl)pyrazin-2-yl]amino}-1,2-thiazole-4-carboxamide]
> 20 µM | > 20 µM | Cc1nsc(Nc2cc(C#N)ccn2)c1C(=O)Nc1cccc(C(=O)OC(C)(C)C)c1 [Example 239, tert-butyl 3-[({5-[(4-cyanopyridin-2-yl)amino]-3-methyl-1,2-thiazol-4-yl}carbonyl)amino]benzoate]
> 20 µM | > 20 µM | Cc1nsc(Nc2ccc(C#N)cn2)c1C(=O)Nc1cccc(N)c1 [Example 180, N-(3-aminophenyl)-5-[(5-cyanopyridin-2-yl)amino]-3-methyl-1,2-thiazole-4-carboxamide]
> 20 µM | > 20 µM | Cc1nsc(Nc2cnc(C(F)(F)F)cn2)c1C(=O)Nc1ccc(OCC2CCN(C(=O)OC(C)(C)C)CC2)nc1 [Example 227, tert-butyl 4-{[(5-{[(3-methyl-5-{[5-(trifluoromethyl)pyrazin-2-yl]amino}-1,2-thiazol-4-yl)carbonyl]amino}pyridin-2-yl)oxy]methyl}piperidine-1-carboxylate]
> 20 µM | > 20 µM | Cc1nsc(Nc2cncc(C(F)(F)F)n2)c1C(=O)Nc1ccc(OC2CCN(C)CC2)nc1 [Example 219, 3-methyl-N-{6-[(1-methylpiperidin-4-yl)oxy]pyridin-3-yl}-5-{[6-(trifluoromethyl)pyrazin-2-yl]amino}-1,2-thiazole-4-carboxamide]
> 20 µM | 12 µM | Cc1nsc(Nc2cnc3ccccc3n2)c1C(=O)Nc1ccc(Nc2ccc(F)c(F)c2)nc1 [Example 245, N-{6-[(3,4-difluorophenyl)amino]pyridin-3-yl}-3-methyl-5-(quinoxalin-2-ylamino)-1,2-thiazole-4-carboxamide]
